Patent US20100317731A1, “Hyperhidrosis treatment” (priority 2009, published 2010)

Columns and labels:
Assay type in all cases: in vivo, human
[1] = system: patients who complained of excessive sweating; experiment: Open label study of 26 patients with excessive sweating treated with topiramate; conditions: 26 patients (18 females, 8 males), total daily dose 25 mg to 100 mg, subjective assessment and report, all on one or more antidepressant
Experimental: In an open label study of 26 patients (18 females and 8 males) who complained of excessive sweating were treated with topiramate on the basis of off label prescribing. The patients were informed of the off-label nature of the treatment and they were counseled about the potential side effects of topiramate. The total daily dose ranged from 25 mg to 100 mg. Over 95% of patients experienced a significant response based on their subjective assessment and report. Patients were all adults with an age range from 25 yrs to 79 yrs. All the patients were on one or more antidepressant including various SSRI's with or without Bupropion. However, several of the patients had experienced excessive sweating for other reasons and before the use of antidepressants, even though adding the antidepressant exacerbated their underlying hyperhidrosis. Some of the underlying causes included perimenopause/menopause as well as primary or idiopathic hyperhidrosis. some had identified vulnerability from before, only made worse by antidepressants.

[2] = system: patients with excessive sweating (drug-induced hyperhidrosis); experiment: Clinical examples: single patient case reports of excessive sweating treated with topiramate
[3] = system: patients with excessive sweating; experiment: Inventor's data and observations in patients with excessive sweating
Text: Based on data and observations that the inventor has, they have found topiramate (Topamax®) to have the following, previously undiscovered, beneficial pharmacological effects for patients with excessive sweating: The patient population in which the inventor has seen these benefits included both men and women ranging in age from 25 to 79 years. […] Optionally, the topiramate can be taken as a low dose on an as-needed basis to treat these sweating episodes. […] The inventor became convinced that topiramate was effective in the treatment of excessive sweating. They observed the improvement in patients whose sweating was induced by various antidepressant medications. Some experienced such sweating severity that they had to change their bedding at night as well as their night clothes. Others found it too embarrassing in the day time to the extent that it interfered with their work and social life; and some became reluctant to take their required antidepressant.

[4] = men and women aged 25 to 79 years
[5] = patients with excessive sweating

Question: Which results are given for CC1(C)O[C@@H]2[C@@H](CO[C@@]3(COS(N)(=O)=O)OC(C)(C)O[C@@H]23)O1 [topiramate]?
Answer: patients who experienced a significant response [1]: Over 95%; excessive sweating, patient report ([2]; Example 1, a person, Cymbalta 60 mg daily, retrial of topiramate 25 mg twice daily): much better; excessive sweating, patient report ([2]; Example 1, a person, Cymbalta 80 mg daily, topiramate raised from 50 mg daily to 50 mg twice daily): after initial improvement with the topiramate increase, the excessive sweating has recurred; excessive sweating, patient report ([2]; Example 2, a person, Cymbalta and Wellbutrin XL, topiramate 25 mg daily): much better; adverse effects, patient report ([2]; Example 2, a person, topiramate 25 mg per day): no adverse effects; excessive sweating, patient report ([2]; Example 3, a person, Effexor XR 300 mg daily, topiramate 50 mg daily): much improvement; adverse effects, patient report ([2]; Example 3, a person, topiramate 50 mg daily): no adverse effects; excessive sweating, patient report ([2]; Example 4, a person, Zoloft, topiramate 25 mg twice daily): improved; effectiveness when taken on an as needed basis ([2]; Example 4, a person, Zoloft, topiramate as needed): effective; adverse effects, patient report ([2]; Example 4, a person, topiramate): no adverse effects; excessive sweating, patient report ([2]; Example 5, a person, Wellbutrin XL, Cymbalta, Pristiq, topiramate 50 mg daily): suboptimal improvement; excessive sweating, patient report ([2]; Example 5, a person, topiramate 50 mg twice daily, improvement reported for five months thereafter): satisfactory; excessive perspiration, patient report ([2]; Example 6, a person, Wellbutrin XL and Cymbalta, topiramate 25 mg daily, over eighteen months): satisfactory resolution; adverse effects, patient report ([2]; Example 6, a person, topiramate 25 mg daily, over eighteen months): without any adverse effects; excessive sweating, patient report ([2]; Example 7, a person, Aricept and Cymbalta 30 mg, topiramate 25 mg then 50 mg at bedtime): complete resolution; adverse effects, patient report ([2]; Example 7, a person, topiramate 25 mg then 50 mg at bedtime): no adverse effects; effectiveness against drug-induced hyperhidrosis at low dose ([3]; doses as low as 12.5 mg per day in an adult): highly effective; incidence of side effects at low dosage ([3]; low dosage): without significant incidence of those side effects; benefit in the patient population [3, 4]: all benefited; side effects in the patient population [3, 4]: minimal side effects; effect on excessive sweating caused by antidepressants and similar medications [3, 5]: Substantial improvement; effect on excessive sweating caused by primary or idiopathic hyperhidrosis [3, 5]: Substantial improvement; effect on excessive sweating from other miscellaneous causes of hyperhidrosis [3, 5]: Substantial improvement; effect on excessive sweating, idiopathic or drug-induced [3, 5]: Substantial improvement; effectiveness when used on an as needed basis [3, 5]: effective
